Test results published in US10827695B2, “Process for in vitro flowering in Crocus sativus L” (Council of Scientific & Industrial Research, priority 2015, dated 2020).

System: saffron crocus (Crocus sativus L.) corm explants
Assay: in-vitro induction of flowering / proliferation of floral primordia in corm explants on MS medium with PGR
Assay type: cell-based
Description: Accordingly, the incubation is carried out at a temperature in the range of 9° C. to 30° C. preferably at a temperature in the range of 9° C. to 21° C., with RH (relative humidity) in the range of 50 to 90%, and photoperiod of about 16 hours provided by 1/2/4 cool fluorescent tubes (Philips, 40 W), giving about 11.7 ? mol m−^2 s^−1 PPF (Photosynthetic Photon Flux) i.e. ˜866 lux (illuminance) each followed by 8-h dark period. The cultures are maintained for 4-5 weeks in the medium at above incubation conditions during which 80% of the culture remain sterile and show sprouting. They are then transferred to fresh MS medium of same composition and incubated under sterile conditions for about 1 to 2 weeks till the sprouted buds are about 8 cm long. The sprouted buds are slit vertically and incubated in MS medium of same composition for another 2 to 3 weeks under the same conditions. This helps the bud to open and grow further (FIG. 1 & FIG. 2).
Corms weighing ˜10 gm were used for the experiments. Explants were prepared by trimming the sides and base of the corms and making small cubes of about 1 cm^3 containing the dormant or slightly sprouted apical buds on 22 Oct. 2014.
These explants were surface sterilized by washing them with neutral Detergent Labolene for 10 min followed by washing with 15% Savlon for 10 minutes. Further, these explants were treated with 1% Bavistin (BASF) for 30 minutes followed by 5 min followed by 0.08% mercuric chloride treatment in a sterile work station (Laminar Air Flow cabinet). After each treatment the explants were washed with sterile distilled water.
Murashige and Skoog Medium supplemented with 6 benzyl amino purine (BAP) (1.0 mg/l) was used for culture. The media made in distilled water was further constituted with 3% sucrose and 0.6% agar. The final pH was adjusted at 5.7. The media was autoclaved at 121° C. at 15 lbs pressure for 20 minutes.
The cultures were maintained for 5 weeks in the medium at 25±2° C., light intensity 16-h light (at 11.7 ? mol m^−2s^−1) followed by 8-h dark period.
The sterile sprouted buds of 5-7 cms length were transferred to fresh medium of same composition after making a vertical slit on the sprouting bud. It helps the bud to open and grow further.
They were again incubated for 3 weeks under the same incubation conditions.
Corms weighing ˜10 gm were used for the experiments. Explants were prepared by trimming the sides and base of the corms and making small cubes of about 1 cm^3 containing the dormant or slightly sprouted apical buds on 22 Oct. 2014. One part of such samples was used for this set-up, while other was reserved for set ^-up of Example 3.
The explants were surface sterilized by passing it through Detergent Labolene for 10 min followed by washing with 15% Savlon for 10 minutes. Further, the cubed explants were treated with 1% Bavistin (BASF) for 30 minutes followed by 5 min 0.08% mercuric chloride treatment in a sterile work station (Laminar Air Flow cabinet). After each treatment the explants were washed with sterile distilled water.
The cultures were maintained for 5 weeks in the medium at 25±2° C. Light intensity 16-h light (at 11.7 ? mol m^−2 s^−1) followed by 8-h dark period.
The sterile sprouted buds of 5-7 cm length were transferred to fresh medium of same composition after making a vertical slit on the sprouting bud.
The explants were surface sterilized by treating them with neutral detergent Labolene for 15 min followed by washing with 20% Savlon for 5 minutes. […]

Row | SMILES | flowering in cultures (Example 1, MS medium with 1.0 mg/l, explants prepared 22 Oct. 2014, observed by Nov. 5, 2014 (natural flowering season)) | flowering in cultures maintained on fresh medium (Example 2, MS medium with 1.0 mg/l, until May 2015) | initiation of flowering in culture (Example 2, MS medium with 1.0 mg/l, until late December 2014 (beyond natural flowering period)) | flowering in cultures (Example 3, MS medium with 0.01, 0.05 and 0.1 mg/l, by last week of December 2014) | flowering in cultures maintained on fresh medium (Example 3, MS medium with 0.01, 0.05 and 0.1 mg/l, till May 2015)
1 | c1ccc(CNc2ncnc3nc[nH]c23)cc1 [BAP, 6-benzylaminopurine] | Flowering was observed | flowering was observed | Initiation of flowering was observed | – | –
2 | O=C(Nc1ccccc1)Nc1cnns1 [TDZ, thidiazuron] | – | – | – | Flowering was observed | flowering was observed
